Data on ten compounds can be found in ChEMBL document CHEMBL1201862, “PubChem BioAssay data set” (2004).

Among the test systems are LOX IMVI; MCF7; M14; 786-0; SNB-75; NCI-H23; K562; Malme-3M; NCI-H460; NCI/ADR-RES; HCT-116; MOLT-4; COLO 205; HCC 2998; OVCAR-5; CCRF-CEM; SF-539; SK-OV-3; CAKI-1.
Holding throughout (experiment): inhibition of tumour cell growth, NCI panel, 48 h

Each structure is given as a SMILES string.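 A five-concentration, 48-hour dose response in 96-well plates underlies each endpoint, interpolated linearly between surrounding concentrations. The concentration for 50% growth inhibition is given as GI50.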 Activity calls are given as the source filed them. Cut-off read from the data, not from the text of the source: active = GI50 up to about 1.1 µM and inactive = higher.

Turning to `O=C(Oc1ccccc1)c1cc2cc(CCl)ccc2oc1=O`, the GI50 was 49.4 µM (inactive) in the assay on LOX IMVI; 20.1 µM (inactive) with MCF7; 13.1 µM (inactive) in the assay on M14; 19.4 µM (inactive) in the assay on 786-0; 21.5 µM (inactive) in the assay with SNB-75; 15.5 µM (inactive) in the assay on NCI-H23. In addition, the GI50 is 5.61 µM (inactive) in the assay with K562; 1.74 µM (inactive) with Malme-3M; 20.3 µM (inactive) in the assay on NCI-H460; 30 µM (inactive) in the assay on NCI/ADR-RES; 34.4 µM (inactive) in the assay on HCT-116; 18.8 µM (inactive) with MOLT-4. Moreover, the GI50 is 17.8 µM (inactive) in the assay with COLO 205; 20.5 µM (inactive) in the assay with HCC 2998; 97.7 µM (inactive) in the assay on OVCAR-5; 24.3 µM (inactive) with CCRF-CEM; 30.6 µM (inactive) in the assay on SF-539; 28.6 µM (inactive) in the assay with SK-OV-3. Further, the GI50 with CAKI-1 was 14.5 µM (inactive).

Consider `O=C(O)CSc1ccccc1C(=O)O`, for which the GI50 with LOX IMVI, with MCF7, in the assay with M14, with 786-0, in the assay on SNB-75 and in the assay with NCI-H23 was > 100 µM (inactive) throughout. Also, the GI50 in the assay with K562 was > 100 µM (inactive); with Malme-3M it was > 100 µM (inactive); with NCI-H460, 20.7 µM (inactive); in the assay on NCI/ADR-RES, > 100 µM (inactive); in the assay with HCT-116, > 100 µM (inactive); in the assay with MOLT-4, > 100 µM (inactive). Further, the GI50 is > 100 µM (inactive) in the assay on COLO 205; 29.6 µM (inactive) in the assay on HCC 2998; > 100 µM (inactive) in the assay with OVCAR-5; > 100 µM (inactive) in the assay with CCRF-CEM; > 100 µM (inactive) with SF-539; > 100 µM (inactive) in the assay with SK-OV-3. Also, the GI50 in the assay on CAKI-1 was > 100 µM (inactive).

For `CCNC(=S)NNC(=O)C12CC3CC(CC(C3)C1)C2`, the GI50 in the assay on LOX IMVI was > 100 µM (inactive); in the assay with MCF7, > 100 µM (inactive); with M14, > 100 µM (inactive); in the assay with 786-0, > 100 µM (inactive); in the assay on SNB-75, 64.1 µM (inactive); in the assay with NCI-H23, > 100 µM (inactive). Moreover, the GI50 with K562, in the assay with Malme-3M, with NCI-H460, in the assay with NCI/ADR-RES, in the assay on HCT-116 and in the assay on MOLT-4 was > 100 µM (inactive) in each case. The GI50 in the assay on COLO 205, in the assay with HCC 2998, with OVCAR-5, in the assay with CCRF-CEM, in the assay on SF-539 and in the assay with SK-OV-3 was > 100 µM (inactive) in each case. Moreover, the GI50 in the assay with CAKI-1 is > 100 µM (inactive).

Consider `COc1ccc([C@H]2[C@H]3COC(=O)[C@H]3C(C#N)=C3Sc4ccccc4N32)cc1`, for which the GI50 with LOX IMVI is 20.2 µM (inactive); in the assay on MCF7, 27.3 µM (inactive); with M14, 56.5 µM (inactive); with 786-0, 36.7 µM (inactive); in the assay on SNB-75, 9.64 µM (inactive); in the assay on NCI-H23 it was 22.8 µM (inactive). Moreover, the GI50 in the assay with K562 is 41.4 µM (inactive); in the assay with Malme-3M it was 43 µM (inactive); with NCI-H460, 25.4 µM (inactive); in the assay with NCI/ADR-RES it was 15.5 µM (inactive); in the assay on HCT-116, 21.7 µM (inactive); in the assay on MOLT-4, 13.4 µM (inactive). Further, the GI50 with COLO 205 is 15.3 µM (inactive); with HCC 2998 it was 44.3 µM (inactive); in the assay on OVCAR-5, 80.5 µM (inactive); in the assay on CCRF-CEM, 11.9 µM (inactive); in the assay with SF-539, 22.3 µM (inactive); with SK-OV-3, 39.9 µM (inactive). The GI50 in the assay with CAKI-1 is 21.7 µM (inactive).

In the case of `Cc1c(-c2ccccc2)c(C#N)c2nnn(C3CCCCC3)c(=O)n12`, the GI50 with LOX IMVI was > 100 µM (inactive); with MCF7, > 100 µM (inactive); with M14, 87.3 µM (inactive); in the assay with 786-0 it was 24.5 µM (inactive); with SNB-75, 28 µM (inactive); in the assay with NCI-H23, > 100 µM (inactive). Besides, the GI50 with K562 was 88.3 µM (inactive); with Malme-3M, > 100 µM (inactive); in the assay with NCI-H460 it was > 100 µM (inactive); in the assay on NCI/ADR-RES it was > 100 µM (inactive); in the assay on HCT-116, 52.6 µM (inactive); with COLO 205, 88.1 µM (inactive). Also, the GI50 in the assay with HCC 2998 was > 100 µM (inactive); in the assay on OVCAR-5, 94.4 µM (inactive); in the assay on CCRF-CEM, > 100 µM (inactive); in the assay on SF-539 it was 47.4 µM (inactive); with SK-OV-3, 60.3 µM (inactive); in the assay on CAKI-1, 0.425 µM (active).

As to `COC(=O)c1c(O)ccc2c1c1c(n2Cc2ccc(Cl)cc2Cl)C(=O)c2ccccc2C1=O`, the GI50 in the assay on LOX IMVI was 12.7 µM (inactive); in the assay with MCF7, 4.09 µM (inactive); with M14, 14.1 µM (inactive); with 786-0, 10.1 µM (inactive); with SNB-75, 17.9 µM (inactive); in the assay with NCI-H23, 10.5 µM (inactive). The GI50 in the assay on K562 is 5.9 µM (inactive); in the assay with Malme-3M, 16 µM (inactive); in the assay with NCI-H460 it was 3.27 µM (inactive); with NCI/ADR-RES, 10.7 µM (inactive); in the assay on HCT-116 it was 3.91 µM (inactive); in the assay on MOLT-4, 2.27 µM (inactive). The GI50 with COLO 205 is 11.2 µM (inactive); with HCC 2998 it was 3.48 µM (inactive); in the assay on OVCAR-5, 19.5 µM (inactive); in the assay with CCRF-CEM it was 4.12 µM (inactive); in the assay on SF-539 it was 14.4 µM (inactive); in the assay on SK-OV-3, 14.3 µM (inactive). Besides, the GI50 with CAKI-1 is 12.2 µM (inactive).

For `CCOC(=O)Cn1nnc2ccc(Nc3nc4ccccc4nc3C(=O)OCC)cc21`, the GI50 in the assay on LOX IMVI was > 100 µM (inactive); with MCF7, > 100 µM (inactive); with M14 it was > 100 µM (inactive); with 786-0 it was 89.3 µM (inactive); in the assay on SNB-75 it was 18.5 µM (inactive); in the assay with NCI-H23, 45.9 µM (inactive). The GI50 in the assay on K562, in the assay with Malme-3M, in the assay with NCI-H460, with NCI/ADR-RES, with HCT-116 and with MOLT-4 was > 100 µM (inactive) each time. The GI50 in the assay with COLO 205 was > 100 µM (inactive); in the assay on HCC 2998, 87.3 µM (inactive); in the assay with OVCAR-5 it was > 100 µM (inactive); with CCRF-CEM, > 100 µM (inactive); with SF-539 it was 31.3 µM (inactive); with SK-OV-3, 59 µM (inactive). In addition, the GI50 in the assay on CAKI-1 is > 100 µM (inactive).

Consider `COC(=O)C1(C)C=CC(=O)C2(C)C1C(O)C1OC3CC(c4ccoc4)C(C)=C3C1(C)C2CC(=O)O` (stereo not drawn), for which the GI50 in the assay on LOX IMVI, in the assay on MCF7, with M14, in the assay on 786-0, in the assay on SNB-75 and with NCI-H23 was > 100 µM (inactive) each time. In addition, the GI50 in the assay with Malme-3M, in the assay with NCI-H460, with NCI/ADR-RES, in the assay on HCT-116, with MOLT-4 and in the assay with COLO 205 was > 100 µM (inactive) in each case. Moreover, the GI50 in the assay with HCC 2998, in the assay on OVCAR-5, with CCRF-CEM, with SF-539, in the assay on SK-OV-3 and in the assay on CAKI-1 was > 100 µM (inactive) throughout.

Regarding `CC(=O)O[C@H]1C(=O)[C@@]2(C)[C@H]([C@H](OC(=O)c3ccccc3)[C@]3(O)C[C@H](OC(=O)[C@H](O)[C@@H](NC(=O)C(C)(O)C(C)O)c4ccccc4)C(C)=C1C3(C)C)[C@]1(OC(C)=O)CO[C@@H]1C[C@@H]2O` (stereo partly drawn), the GI50 in the assay with LOX IMVI was 0.607 µM (active); with MCF7, 0.076 µM (active); with M14, 0.337 µM (active); with 786-0, 1.33 µM (inactive); in the assay with SNB-75, 0.0514 µM (active); in the assay with NCI-H23, 0.282 µM (active). The GI50 in the assay with K562 is 0.172 µM (active); in the assay with Malme-3M, 0.226 µM (active); in the assay with NCI-H460 it was 0.282 µM (active); with NCI/ADR-RES, > 50 µM (inactive); in the assay on HCT-116, 0.14 µM (active); with MOLT-4 it was 0.282 µM (active). Further, the GI50 was 0.0933 µM (active) in the assay on COLO 205; 0.141 µM (active) in the assay with HCC 2998; 0.687 µM (active) in the assay on OVCAR-5; 0.183 µM (active) with CCRF-CEM; 0.112 µM (active) in the assay with SF-539; 0.231 µM (active) with SK-OV-3. The GI50 in the assay with CAKI-1 was 15.5 µM (inactive).

As to `CCN(CC)/[N+]([O-])=N/OCOC(C)=O`, the GI50 in the assay on LOX IMVI, with MCF7, in the assay with M14, in the assay with 786-0, in the assay with SNB-75 and in the assay on NCI-H23 was > 100 µM (inactive) in each case. Moreover, the GI50 in the assay on K562, in the assay with Malme-3M, with NCI-H460, in the assay with NCI/ADR-RES, in the assay on HCT-116 and in the assay with MOLT-4 was > 100 µM (inactive) in each case. The GI50 in the assay on COLO 205 is > 100 µM (inactive); with HCC 2998, > 100 µM (inactive); with OVCAR-5, > 100 µM (inactive); in the assay on CCRF-CEM, 94.4 µM (inactive); with SF-539 it was > 100 µM (inactive); in the assay with SK-OV-3, > 100 µM (inactive). The GI50 in the assay with CAKI-1 is > 100 µM (inactive).
